The text below walks through data of US10111884B2, “Methods and compositions for treating viral infections” (THE HONG KONG UNIVERSITY OF SCIENCE AND TECHNOLOGY, priority 2012, dated 2018).

Where two headings read alike, the source gives them in different places.

Series [1] concerns CMV. The series is described as follows: CMV plaque reduction assay in HFF monolayers. The class given is cell-based, human cytomegalovirus. The source says: The CMV strains used were: AD169 (obtained from the American Type Culture Collection), and TB40/E. In addition, low-passage clinical isolates CI704, and CI893, recovered at the Hadassah Clinical Virology Laboratory from the urine of congenitally-infected newborns, and propagated for 3-5 passages, were used for some experiments. All CMV strains were propagated and titered in human foreskin fibroblasts (HFF) cells. Cell-free virus stocks and cell-associated clinical isolates were maintained at −70° C. Viral stocks were titered by serial 10-fold dilution in 24-well tissue culture plates containing HFF monolayers overlaid with agarose-medium. After incubation for 7 to 10 days, plaques were enumerated, and virus titer was determined as plaque forming units (PFU) per milliliter (ml). Stocks of artemisone, artemiside, RW177, compound IX, and artesunate were freshly prepared at 10 mM concentration in DMSO. Ganciclovir, stored as 10 mM stock was used in comparative assays.
Cell monolayers were inoculated in 24-well culture plates with 0.2 ml of virus suspension containing 60 to 100 PFU per well. After adsorption for 60 min at 37° C., the inoculum was removed, and culture medium was replaced with agarose-medium overlay containing the tested drug. The following final drug concentrations were used: Artemisone: 0, 0.1, 1, 5, 10, 25, and 50 μM; Artesunate: 0, 1, 5, 10, 25, 50, and 100 μM; Ganciclovir, artemiside, compound IX and RW177: 0, 0.1, 1, 5, 10, 25, and 50 μM. Plates were incubated for 10 days at 37° C. in a 5% CO2 incubator. Plaques were then counted microscopically. The drug concentration required to reduce the number of plaques to 50% of the control value (IC50), was calculated.
(§1) Antiviral activity of artemisone was determined by applying various drug concentrations to a growing virus in cell culture, using a standard plaque reduction assay. Artesunate, a compound known to have significant anti-viral activity, was tested in parallel. Ganciclovir was used as an additional positive control. The IC50 values of at least three separate experiments with each drug and virus were averaged, and the results are reported as mean±standard deviation values. Representative curves of plaque reduction assay for artemisone and artesunate are depicted in FIGS. 2A and 3A, respectively.
In general terms: In a plaque reduction assay, fewer plaques than in the control indicate reduced infectivity or spread.

In another series the test system is HCMV strain TB40/E. The series is described as follows: Antiviral drug susceptibility in ex-vivo HCMV-infected decidual organ cultures (normalized viral DNA). Type of series: cell-based, human cytomegalovirus. The note with it: Human betaherpesvirus 5, TB40/E 10^5 PFU/well, 8 dpi, read-out: IC50 (drug concentration required to reduce normalized tissue viral DNA copy number by 50%). As for the experimental part:
For infection of decidual organ cultures, the tissues were placed in 48-well plates (˜5 slices/well to maintain optimal viability) immediately after the sectioning and inoculated with the indicated virus (10^4 plaque forming units/well, unless indicated otherwise) for 12 hours to allow effective viral adsorption. Following viral adsorption, the cultures were washed extensively and further incubated for the duration of the experiment with replacement of the culture medium every 2-3 days.
DNA and RNA were extracted from the samples using the QIAamp DNA Mini Kit extraction kit and RNeasy Mini Kit (QIAGEN, Hilden, Germany) respectively, according to the manufacturer's instructions. The purified DNA samples were subjected to a quantitative real-time PCR reaction on a 7900HT Real Time PCR system (Applied Biosystems, Foster City, Calif., USA), using primers and probes derived from the HCMV glycoprotein B (gB) as described in Boeckh et al., 2004, J. Clin. Microbiol., 42, 1142-1148. […] The purified RNA samples were subjected to reverse transcription using GoScript™ (Promega, Madison, USA), followed by quantitative real-time PCR of the late HCMV R160461 spliced mRNA as described in White et al., 2004, J. Virol., 78, 1817-1830. […]

For series [2], the system named is HCMV strain AD169 IE1/2 antigen. The series is described as follows: Immunofluorescence assay of viral immediate early (IE1/2) gene expression. The class given is cell-based, human cytomegalovirus. The note with it: 24 hpi; for viral IE gene expression (in words): 25 μM. How it is done:
(§2) Human foreskin fibroblasts (HFF) were infected with HCMV strain AD169. At 1 hour post infection (hpi), artemisone (25 μM) or ganciclovir (25 μM) were added to the growth medium, and the cells were further incubated in the presence of the drug, until prepared for immunofluorescence analysis at 24 and 72 hpi—to analyze the expression of IE and pp65, respectively. Control untreated infected cells, and mock-infected cells were analyzed in parallel.
(§3) Cells grown on 8-well glass slides were infected at a multiplicity of infection (moi) of 0.1 PFU/cell. Supernatant was removed at 24 and 72 hpi, and cells were washed 3 times with PBS and fixed with 3.7% formaldehyde for 30 minutes at room temperature. Cells were washed 5 times with PBS+1% NH4Cl, permeabilized by 0.1% TX100 for 5 minutes and washed 5 times with PBS+1% NH4Cl. After 1 hour of blocking using 1% BSA in PBS, the indicated primary monoclonal antibodies (IE1/2 or pp65) were added to the cells in appropriate dilution in 0.5% BSA in PBS and incubated either at room temperature for 2 hours or overnight at 4° C. The secondary antibody was added to the cells in appropriate dilution in PBS containing 0.5% BSA for 30 minutes at room temperature and washed by PBS.
(§4) Following mounting with commercial mounting media, with addition of 4′,6-diamidino-2-phenylindole (DAPI) nuclear stain (yielding nuclear blue stain in all cells), the cells were analyzed by fluorescence microscopy. Results were monitored on at least 3 independent experiments, scoring at least 5 fields (of between 500 and 800 cells each) for each treatment arm.

Series [3] deals with HCMV strain AD169 pp65 antigen. The series is described as follows: Immunofluorescence assay of viral late (pp65) gene expression. The class given is cell-based, human cytomegalovirus. The note with it: 72 hpi; for viral late (pp65) gene expression (in words): 25 μM. How it is done: as §2, §3, §4
Series [4] relates to human foreskin fibroblasts (HFF) cells. The series is described as follows: Cytotoxicity observed alongside plaque reduction assay. Type of series: cell-based.
Series [5] has as its system CMV. The series is described as follows: CMV antiviral activity in retinal epithelial cells (RPE) culture. The class given is cell-based, human cytomegalovirus. How it is done:
as §1

Series [6] concerns CMV. The series is described as follows: Quantification of viral DNA in infected cells by real-time PCR (CMV gB gene). Type of series: cell-based, human cytomegalovirus. Conditions: FIGS. 2B, 3B. How it is done: Viral DNA quantity in infected cells with and without added drugs (expressed as genome copies/well) was determined by real-time PCR assay, following DNA extraction from cells, with the use of primers and probe derived from the CMV gB gene.
The results of Example 1 were confirmed by quantitation of viral DNA using real-time PCR. […] Representative curves of viral DNA accumulation for artemisone and artesunate are depicted in FIGS. 2B and 3B, respectively.

For series [7] the following is noted: male rats, 50 mg/kg for 14 days; cited from earlier work.
For series [8] the following is noted: preclinical in vitro and in vivo screens; cited from earlier work.
The test system of a further series is human endothelial cells. The note with it: D'Alessandro et al., 2007; cited from earlier work.
The mark [9] stands for this setting: Human betaherpesvirus 5, 240 h, read-out: IC50 (drug concentration required to reduce the number of plaques to 50% of control), mean ± standard deviation.
Where [10] appears, read: IE1 ± IE2 antigen, drug 25 μM, HFF, AD169.
[11] abbreviates: pp65 antigen, drug 25 μM, HFF, AD169.

As to `C[C@H]1[C@H](N2CCSCC2)O[C@@H]2O[C@@]3(C)CC[C@H]4[C@H](C)CC[C@@H]1[C@@]24OO3` [artemiside, reference compound], the IC50 in the series on CMV [1] (setting [9]) is greater than 40000 nM.
As to `CC1CCC2[C@@H](C)[C@H](NS(N)(=O)=O)OC3O[C@]4(C)CCC1C32OO4` (stereo partly drawn) [compound IX], the IC50 in the series with CMV [1] (Human betaherpesvirus 5, 240 h, at least three separate experiments averaged, 10 days incubation, read-out: IC50 (drug concentration required to reduce the number of plaques to 50% of control), mean ± standard deviation) amounted to 2100 ± 600 nM.
In the case of `Nc1nc2c(ncn2COCCO)c(=O)[nH]1` [acyclovir], the IC50 with HCMV strain TB40/E was 18300 nM.
Consider `Nc1nc(O)c2ncn(COC(CO)CO)c2n1` [Ganciclovir, ganciclovir], for which, in [2], the “viral IE gene expression (in words)” value is reported as “did not inhibit IE gene expression”. In addition, in series [2] (setting [10]), the “CMV antigen-positive cells (%)” value is recorded as 5.97% and the “CMV antigen-positive cells per field (N)” value is recorded as 33 ± 5. In addition, in series [3], the “viral late (pp65) gene expression (in words)” value is reported as “highly efficient reduction”. Besides, in series [3] (setting [11]), the “CMV antigen-positive cells (%)” value is on record as 0.18% and the “CMV antigen-positive cells per field (N)” value is 1 ± 0.25. Also, the IC50 in the series with HCMV strain TB40/E was determined as 1500 nM.
With `C[C@H]1[C@H](OC(=O)CCC(=O)O)O[C@@H]2O[C@@]3(C)CC[C@H]4[C@H](C)CC[C@@H]1[C@@]24OO3` [Artesunate, artesunate, reference compound], the IC50 amounted to 10800 ± 4200 nM in the series on CMV [1] (setting [9]) and 15000 nM in the series on CMV [1] (Human betaherpesvirus 5, read-out: IC50 value for this assay (inhibition of CMV plaque formation, dose response curve)).
`CC1CCC2[C@@H](C)[C@H](N3CCS(=O)(=O)CC3)OC3O[C@]4(C)CCC1C32OO4` (stereo in doubt) [Artemisone]: the IC50 is 900 ± 300 nM with CMV [1] (setting [9]) and 1200 nM with CMV [1] (Human betaherpesvirus 5, representative curve, FIG. 2A / FIG. 3A, read-out: IC50 value for this assay (inhibition of CMV plaque formation, dose response curve)). In addition, the cytotoxicity entry in series [4] is listed as “no cytotoxicity”. For the same molecule, the “antiviral activity compared to artesunate” value in the series with CMV [5] was “Superior antiviral activity”. For the same molecule, the “antiviral efficacy by quantitation of viral DNA” value in the series with CMV [6] was “far superior to that of artesunate”. In addition, the “viral IE gene expression (in words)” value in series [2] was “significant reduction”. The “CMV antigen-positive cells (%)” value in series [2] (setting [10]) and in series [3] (setting [11]) was 0% each time. The “viral late (pp65) gene expression (in words)” value in series [3] was “highly efficient reduction”. Besides, in series [7], the tolerability entry is on record as “no effect as compared to controls”. The neurotoxicity result in series [8] is reported as “does not elicit neurotoxicity”. The “anti-angiogenic effect compared to dihydroartemisinin” value in the series with human endothelial cells was “significantly less anti-angiogenic than dihydroartemisinin”.
